From ChEMBL document CHEMBL5260842 (J Med Chem, 2019)
Activity calls are given as the source filed them.

Assays:
[1] = biological target: T1, von Hippel-Lindau disease tumor suppressor/Androgen receptor (Homo sapiens, UniProt P10275+P40337); experiment: Protac activity at VHL/AR in AR-positive human LNCaP cells assessed as induction of androgen receptor degradation at 0.01 uM incubated for 6 hrs by Western blot analysis (reference value: 0%); assay type: cell-based
Target sequence in this assay (P10275 whole entry, looked up): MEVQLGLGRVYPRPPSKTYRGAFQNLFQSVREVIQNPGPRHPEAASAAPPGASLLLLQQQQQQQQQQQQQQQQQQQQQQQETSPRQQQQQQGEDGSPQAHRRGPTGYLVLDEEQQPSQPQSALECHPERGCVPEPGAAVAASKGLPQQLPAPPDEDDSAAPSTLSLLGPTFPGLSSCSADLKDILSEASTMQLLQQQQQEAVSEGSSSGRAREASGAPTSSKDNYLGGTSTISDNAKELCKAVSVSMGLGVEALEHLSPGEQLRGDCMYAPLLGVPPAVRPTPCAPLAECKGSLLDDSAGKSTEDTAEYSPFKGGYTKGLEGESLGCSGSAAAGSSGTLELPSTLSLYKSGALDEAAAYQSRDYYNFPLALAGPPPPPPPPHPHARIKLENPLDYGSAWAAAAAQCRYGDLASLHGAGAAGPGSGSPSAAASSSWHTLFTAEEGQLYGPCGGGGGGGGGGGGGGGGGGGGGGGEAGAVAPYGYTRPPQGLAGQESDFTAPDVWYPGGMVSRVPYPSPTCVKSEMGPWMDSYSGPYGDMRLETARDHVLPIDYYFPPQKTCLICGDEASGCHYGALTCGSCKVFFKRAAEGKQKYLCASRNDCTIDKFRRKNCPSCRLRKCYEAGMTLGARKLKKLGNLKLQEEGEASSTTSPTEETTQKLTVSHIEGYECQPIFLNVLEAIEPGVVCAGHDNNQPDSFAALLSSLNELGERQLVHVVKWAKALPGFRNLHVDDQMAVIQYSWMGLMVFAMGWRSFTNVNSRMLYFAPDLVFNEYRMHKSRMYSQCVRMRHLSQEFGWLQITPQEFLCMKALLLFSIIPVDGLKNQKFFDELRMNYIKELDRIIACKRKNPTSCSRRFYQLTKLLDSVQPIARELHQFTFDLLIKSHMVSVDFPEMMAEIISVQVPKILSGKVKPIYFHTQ
Target sequence in this assay (P40337 whole entry, looked up): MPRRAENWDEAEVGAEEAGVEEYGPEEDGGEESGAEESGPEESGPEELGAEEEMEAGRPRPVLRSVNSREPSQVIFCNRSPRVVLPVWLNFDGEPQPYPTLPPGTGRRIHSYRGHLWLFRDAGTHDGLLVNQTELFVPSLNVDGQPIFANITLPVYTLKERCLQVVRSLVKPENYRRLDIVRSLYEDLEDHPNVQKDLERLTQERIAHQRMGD

[2] = biological target: T1, von Hippel-Lindau disease tumor suppressor/Androgen receptor; experiment: Protac activity at VHL/AR in AR-positive human LNCaP cells assessed as induction of androgen receptor degradation at 0.1 uM incubated for 6 hrs by Western blot analysis (reference value: 0%); assay type: cell-based
Target sequence in this assay (P10275 whole entry, looked up): as the sequence (P10275 whole entry, looked up) above
Target sequence in this assay (P40337 whole entry, looked up): as the sequence (P40337 whole entry, looked up) above

[3] = biological target: T1, von Hippel-Lindau disease tumor suppressor/Androgen receptor; experiment: Protac activity at VHL/AR in AR-positive human LNCaP cells assessed as reduction in protein level at 100 nM measured after 2 to 4 hrs by Western blot analysis; assay type: cell-based; details: time 2-4 hrs
Target sequence in this assay (P10275 whole entry, looked up): as the sequence (P10275 whole entry, looked up) above
Target sequence in this assay (P40337 whole entry, looked up): as the sequence (P40337 whole entry, looked up) above

[4] = biological target: T1, von Hippel-Lindau disease tumor suppressor/Androgen receptor; experiment: Protac activity at VHL/AR in AR-positive human VCaP cells assessed as reduction in protein level at 100 nM measured after 2 to 4 hrs by Western blot analysis; assay type: cell-based; details: time 2-4 hrs
Target sequence in this assay (P10275 whole entry, looked up): as the sequence (P10275 whole entry, looked up) above
Target sequence in this assay (P40337 whole entry, looked up): as the sequence (P40337 whole entry, looked up) above

[5] = biological target: T1, von Hippel-Lindau disease tumor suppressor/Androgen receptor; experiment: Protac activity at VHL/AR in human LNCaP cells assessed as induction of protein degradation measured after 24 hrs by Western blot analysis; assay type: cell-based
Target sequence in this assay (P10275 whole entry): as the sequence (P10275 whole entry, looked up) above
Target sequence in this assay (P40337 whole entry): as the sequence (P40337 whole entry, looked up) above

[6] = biological target: T1, von Hippel-Lindau disease tumor suppressor/Androgen receptor; experiment: Protac activity at VHL/AR in human VCaP cells assessed as induction of protein degradation measured after 24 hrs by Western blot analysis; assay type: cell-based
Target sequence in this assay (P10275 whole entry): as the sequence (P10275 whole entry, looked up) above
Target sequence in this assay (P40337 whole entry): as the sequence (P40337 whole entry, looked up) above

[7] = biological target: T1, von Hippel-Lindau disease tumor suppressor/Androgen receptor; experiment: Protac activity at VHL/AR in human 22Rv1 cells assessed as induction of protein degradation measured after 24 hrs by Western blot analysis; assay type: cell-based
Target sequence in this assay (P10275 whole entry): as the sequence (P10275 whole entry, looked up) above
Target sequence in this assay (P40337 whole entry): as the sequence (P40337 whole entry, looked up) above

[8] = biological target: T1, von Hippel-Lindau disease tumor suppressor/Androgen receptor; experiment: Protac activity at VHL/AR in human VCaP cells assessed as induction of protein degradation at 10 nM measured after 24 hrs by Western blot analysis relative to control; assay type: cell-based
Target sequence in this assay (P10275 whole entry, looked up): as the sequence (P10275 whole entry, looked up) above
Target sequence in this assay (P40337 whole entry, looked up): as the sequence (P40337 whole entry, looked up) above

LNCaP [9] = experiment: Downregulation of PSA mRNA expression in human LNCaP cells measured after 24 hrs by qRT-PCR analysis; assay type: functional, cell-based; details: dose 0.1-10000 nM
LNCaP [10] = experiment: Downregulation of TMPRSS2 mRNA expression in human LNCaP cells measured after 24 hrs by qRT-PCR analysis; assay type: functional, cell-based; details: dose 0.1-10000 nM
LNCaP [11] = experiment: Downregulation of FKBP5 mRNA expression in human LNCaP cells measured after 24 hrs by qRT-PCR analysis; assay type: functional, cell-based; details: dose 0.1-10000 nM
VCaP [12] = experiment: Downregulation of PSA mRNA expression in human VCaP cells measured after 24 hrs by regular serum based qRT-PCR analysis; assay type: functional, cell-based; details: dose 1-1000 nM
VCaP [13] = experiment: Downregulation of TMPRSS2 mRNA expression in human VCaP cells measured after 24 hrs by regular serum based qRT-PCR analysis; assay type: functional, cell-based; details: dose 1-1000 nM
VCaP [14] = experiment: Downregulation of FKBP5 mRNA expression in human VCaP cells measured after 24 hrs by regular serum based qRT-PCR analysis; assay type: functional, cell-based; details: dose 1-1000 nM
VCaP [15] = experiment: Downregulation of PSA mRNA expression in human VCaP cells measured after 24 hrs by charcoal stripped serum based qRT-PCR analysis; assay type: functional, cell-based; details: dose 1-1000 nM
VCaP [16] = experiment: Downregulation of TMPRSS2 mRNA expression in human VCaP cells measured after 24 hrs by charcoal stripped serum based qRT-PCR analysis; assay type: functional, cell-based; details: dose 1-1000 nM
VCaP [17] = experiment: Downregulation of FKBP5 mRNA expression in human VCaP cells measured after 24 hrs by charcoal stripped serum based qRT-PCR analysis; assay type: functional, cell-based; details: dose 1-1000 nM
[18] = Downregulation of PSA mRNA expression in human LNCaP cells at 10 nM measured after 24 hrs by qRT-PCR analysis relative to control; assay type: functional
[19] = Downregulation of TMPRSS2 mRNA expression in human LNCaP cells at 10 nM measured after 24 hrs by qRT-PCR analysis relative to control; assay type: functional
[20] = Downregulation of PSA mRNA expression in human VCaP cells at 10 nM measured after 24 hrs by regular serum based qRT-PCR analysis relative to control; assay type: functional
[21] = Downregulation of TMPRSS2 mRNA expression in human VCaP cells at 10 nM measured after 24 hrs by regular serum based qRT-PCR analysis relative to control; assay type: functional
[22] = Downregulation of PSA mRNA expression in human VCaP cells at 10 nM measured after 24 hrs by charcoal stripped serum based qRT-PCR analysis relative to control; assay type: functional
[23] = Downregulation of TMPRSS2 mRNA expression in human VCaP cells at 10 nM measured after 24 hrs by charcoal stripped serum based qRT-PCR analysis relative to control; assay type: functional
VCaP [24] = experiment: Downregulation of ERG gene expression in human VCaP cells measured after 24 hrs by charcoal stripped serum based qRT-PCR analysis; assay type: functional, cell-based; details: dose 1-1000 nM
VCaP [25] = experiment: Downregulation of ERG gene expression in human VCaP cells measured after 24 hrs by regular serum based qRT-PCR analysis; assay type: functional, cell-based; details: dose 1-1000 nM
LNCaP [26] = experiment: Cytotoxicity against AR-positive human LNCaP cells assessed as inhibition of cell growth incubated for 7 days in presence of AR agonist, R1881 in charcoal stripped medium by WST-8 assay; assay type: functional, cell-based; details: 168 h
VCaP [27] = experiment: Cytotoxicity against AR-positive human VCaP cells assessed as inhibition of cell growth incubated for 7 days in presence of AR agonist, R1881 in charcoal stripped medium by WST-8 assay; assay type: functional, cell-based; details: 168 h
CWR22R [28] = experiment: Cytotoxicity against AR-positive human 22Rv1 cells assessed as inhibition of cell growth incubated for 7 days in regular culture medium by WST-8 assay; assay type: functional, cell-based; details: 22Rv1, 168 h
LNCaP [29] = experiment: Potency index, ratio of enzalutamide IC50 to test compound IC50 for cytotoxicity against AR-positive human LNCaP cells assessed as inhibition of cell growth incubated for 7 days in presence of AR agonist, R1881 in charcoal stripped medium by WST-8 assay; assay type: functional; details: time 7 day
VCaP [30] = experiment: Potency index, ratio of enzalutamide IC50 to test compound IC50 for cytotoxicity against AR-positive human VCaP cells assessed as inhibition of cell growth incubated for 7 days in presence of AR agonist, R1881 in charcoal stripped medium by WST-8 assay; assay type: functional; details: time 7 day
CWR22R [31] = experiment: Potency index, ratio of enzalutamide IC50 to test compound IC50 for cytotoxicity against AR-positive human 22Rv1 cells assessed as inhibition of cell growth incubated for 7 days in regular culture medium by WST-8 assay; assay type: functional; details: time 7 day
[32] = biological target: T1, von Hippel-Lindau disease tumor suppressor/Androgen receptor; experiment: (§1) Protac activity at VHL/AR in AR-positive human LNCaP cells assessed as induction of androgen receptor degradation at 100 nM preincubated with N-((1r,3r)-3-(3-chloro-4-cyanophenoxy)-2,2,4,4-tetramethylcyclobutyl)-1-(2-hydroxyethyl)-1H-pyrazole-4-carboxamide for 2 hrs followed by compound addition and measured after 6 hrs by Western blot analysis; assay type: cell-based
Target sequence in this assay (P10275 whole entry, looked up): as the sequence (P10275 whole entry, looked up) above
Target sequence in this assay (P40337 whole entry, looked up): as the sequence (P40337 whole entry, looked up) above

[33] = biological target: T1, von Hippel-Lindau disease tumor suppressor/Androgen receptor; experiment: (§2) Protac activity at VHL/AR in AR-positive human LNCaP cells assessed as induction of androgen receptor degradation at 100 nM preincubated with VHL ligand, (2S,4R)-4-hydroxy-1-((R)-3-methyl-2-(3-methylisoxazol-5-yl)butanoyl)-N-((S)-3-(methylamino)-1-(4-(4-methylthiazol-5-yl)phenyl)-3-oxopropyl)pyrrolidine-2-carboxamide for 2 hrs followed by compound addition and measured after 6 hrs by Western blot analysis; assay type: cell-based
[34] = biological target: T1, von Hippel-Lindau disease tumor suppressor/Androgen receptor; experiment: Protac activity at VHL/AR in AR-positive human LNCaP cells assessed as induction of androgen receptor degradation at 100 nM preincubated with NEDD8 activating E1 enzyme inhibitor, MLN4924 for 2 hrs followed by compound addition and measured after 6 hrs by Western blot analysis; assay type: cell-based
[35] = biological target: T1, von Hippel-Lindau disease tumor suppressor/Androgen receptor; experiment: Protac activity at VHL/AR in AR-positive human LNCaP cells assessed as induction of androgen receptor degradation at 100 nM preincubated with proteasome inhibitor, MG132 for 2 hrs followed by compound addition and measured after 6 hrs by Western blot analysis; assay type: cell-based
[36] = biological target: T1, von Hippel-Lindau disease tumor suppressor/Androgen receptor; experiment: as §1, with “VCaP” for “LNCaP”; assay type: cell-based
[37] = biological target: T1, von Hippel-Lindau disease tumor suppressor/Androgen receptor; experiment: as §2, with “VCaP” for “LNCaP”; assay type: cell-based
[38] = biological target: T1, von Hippel-Lindau disease tumor suppressor/Androgen receptor; experiment: Protac activity at VHL/AR in AR-positive human VCaP cells assessed as induction of androgen receptor degradation at 100 nM preincubated with NEDD8 activating E1 enzyme inhibitor, MLN4924 for 2 hrs followed by compound addition and measured after 6 hrs by Western blot analysis; assay type: cell-based
[39] = biological target: T1, von Hippel-Lindau disease tumor suppressor/Androgen receptor; experiment: Protac activity at VHL/AR in AR-positive human VCaP cells assessed as induction of androgen receptor degradation at 100 nM preincubated with proteasome inhibitor, MG132 for 2 hrs followed by compound addition and measured after 6 hrs by Western blot analysis; assay type: cell-based
[40] = biological target: T1, von Hippel-Lindau disease tumor suppressor/Androgen receptor; experiment: In vivo protac activity at VHL/AR in human VCaP cells xenografted SCID mouse assessed as reduction in PSA protein level in tumor at 50 mg/kg, ip administered as single dose measured after 3 to 48 hrs Western blot analysis; assay type: functional, organism-based; details: time 3-48 hrs
[41] = system: von Hippel-Lindau disease tumor suppressor/Androgen receptor (Homo sapiens); experiment: In vivo protac activity at VHL/AR in human VCaP cells xenografted SCID mouse assessed as reduction in AR protein level in tumor at 50 mg/kg, ip administered as single dose measured after 3 to 48 hrs Western blot analysis; details: time 3-48 hrs

Cc1ncsc1-c1ccc([C@H](CC(=O)N2CCC(N3CCC(C#Cc4ccc(C(=O)N[C@H]5C(C)(C)[C@H](Oc6ccc(C#N)c(Cl)c6)C5(C)C)cc4)CC3)CC2)NC(=O)[C@@H]2C[C@@H](O)CN2C(=O)[C@@H](NC(=O)C2(F)CC2)C(C)(C)C)cc1
>100: Ratio IC50 (LNCaP [29]) | Ratio IC50 (VCaP [30]) | Ratio IC50 (CWR22R [31])
0.86 nM: EC50 [5]
0.25 nM: IC50 (LNCaP [26])
183 nM: IC50 (CWR22R [28])
active: Activity [3] | Activity [4] | Activity (LNCaP [9]) Dose-Dependent Effect | Activity (LNCaP [10]) Dose-Dependent Effect | Activity (LNCaP [11]) Dose-Dependent Effect | Activity (VCaP [12]) Dose-Dependent Effect | Activity (VCaP [13]) Dose-Dependent Effect | Activity (VCaP [14]) Dose-Dependent Effect | Activity (VCaP [15]) Dose-Dependent Effect | Activity (VCaP [16]) Dose-Dependent Effect | Activity (VCaP [17]) Dose-Dependent Effect | Activity (VCaP [24]) Dose-Dependent Effect | Activity (VCaP [25]) Dose-Dependent Effect | Activity [40] | Activity [41]
> 95%: Activity [8]
>50%: Activity [18] | Activity [19] | Activity [20] | Activity [21] | Activity [22] | Activity [23]
10.4 nM: EC50 [7]
99%: Activity [2]
89%: Activity [1]
inactive: Activity [32] | Activity [33] | Activity [34] | Activity [35] | Activity [36] | Activity [37] | Activity [38] | Activity [39]
0.34 nM: IC50 (VCaP [27])
0.76 nM: EC50 [6]
